The values below come from patent publication US10239887B2, “Positive allosteric modulators of the muscarinic acetylcholine receptor M4” (Vanderbilt University, priority 2016, dated 2019).

For one test, the target named is T1, rat mAChR M4 (Rattus norvegicus, UniProt P08485).
T1 sequence (P08485 1-478): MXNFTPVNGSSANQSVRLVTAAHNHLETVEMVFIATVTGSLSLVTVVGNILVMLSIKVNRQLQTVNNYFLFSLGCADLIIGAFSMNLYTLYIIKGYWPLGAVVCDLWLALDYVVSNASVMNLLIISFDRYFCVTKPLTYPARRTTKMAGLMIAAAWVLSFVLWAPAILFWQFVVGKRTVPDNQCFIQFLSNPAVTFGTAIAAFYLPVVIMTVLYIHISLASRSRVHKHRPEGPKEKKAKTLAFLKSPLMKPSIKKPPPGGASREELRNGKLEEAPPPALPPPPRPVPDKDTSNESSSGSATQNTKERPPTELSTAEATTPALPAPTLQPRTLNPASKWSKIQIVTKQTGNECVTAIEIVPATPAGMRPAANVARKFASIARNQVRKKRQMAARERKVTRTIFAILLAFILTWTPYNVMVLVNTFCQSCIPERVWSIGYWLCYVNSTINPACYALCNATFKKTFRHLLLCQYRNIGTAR
Put plainly: mAChR M4 cell-based functional assay (calcium flux), rat M4. As to conditions: for EC50: read-out: Rat M4 EC50, CHO-K1 rM4-Gqi5 cells, calcium flux, increase in EC20 acetylcholine response. Set-up: Emax: dose or concentration left out as unconfirmed. (A change in cytosolic calcium serves as a functional read-out for many receptors and channels.)

Another test addresses T2, human mAChR M4 (Homo sapiens, UniProt P08173).
T2 sequence (P08173 1-479): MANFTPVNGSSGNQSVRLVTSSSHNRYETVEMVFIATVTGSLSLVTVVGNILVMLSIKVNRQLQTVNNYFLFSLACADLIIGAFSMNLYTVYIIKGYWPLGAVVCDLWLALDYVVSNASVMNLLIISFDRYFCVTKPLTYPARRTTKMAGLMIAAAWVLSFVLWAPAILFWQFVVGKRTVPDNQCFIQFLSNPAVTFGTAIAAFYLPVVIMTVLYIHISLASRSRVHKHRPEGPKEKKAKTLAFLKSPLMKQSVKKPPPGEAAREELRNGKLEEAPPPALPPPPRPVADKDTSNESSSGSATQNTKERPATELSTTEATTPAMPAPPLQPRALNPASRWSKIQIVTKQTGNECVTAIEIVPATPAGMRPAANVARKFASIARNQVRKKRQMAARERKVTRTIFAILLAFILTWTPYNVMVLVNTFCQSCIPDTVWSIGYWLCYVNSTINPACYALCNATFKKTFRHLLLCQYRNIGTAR
Briefly: mAChR M4 cell-based functional assay (calcium flux), human M4. Conditions: for Emax: % ACh maximum at 30 μM; for EC50: calcium flux.

[1] abbreviates: Human M4 EC50, CHO-K1 hM4-Gqi5 cells, increase in EC20 acetylcholine response.
The mark [2] stands for this setting: Human M4 EC50 (nM), Table 11, PAM activity with EC20 acetylcholine.

Usually Emax stands for the size of the effect at its maximum, as opposed to the concentration needed. One may read the EC50 as the midpoint of the concentration-response curve. On to `Cc1nnc2sc3c(N(C)C)ncnc3c2c1C` [Compound 1, N,N,3,4-tetramethylpyrimido[4′,5′:4,5]thieno[2,3-c]pyridazin-8-amine], for which the maximal effect (Emax) at rat mAChR M4 turned out to be 79%; at human mAChR M4 (Human M4), 62%. Besides, the EC50 came to 724 nM at rat mAChR M4 and 638 nM at human mAChR M4 (setting [1]).

For the compound `Cc1nnc2sc3c(NC4CCCCC4)ncnc3c2c1C` [Compound 2, N-cyclohexyl-3,4-dimethylpyrimido[4′,5′:4,5] thieno[2,3-c] pyridazin-8-amine], the Emax on rat mAChR M4 was determined as 62%; on human mAChR M4 (Human M4) it was 52%. For the same compound, the figures for the EC50 on rat mAChR M4 and at human mAChR M4 (setting [1]) were 836 nM and 724 nM, respectively.

With `Cc1nnc2sc3c(NC4CCOCC4)ncnc3c2c1C` [Compound 3, 3,4-dimethyl-N-(tetrahydro-2H-pyran-4-yl) pyrimido[4′,5′:4,5] thieno[2,3-c]pyridazin-8-amine], the Emax amounted to 60% on rat mAChR M4 and 45% at human mAChR M4 (Human M4). In addition, the EC50 on rat mAChR M4 worked out at 521 nM; on human mAChR M4 (setting [1]), 446 nM.

In the case of `Cc1nnc2sc3c(N4CCCCC4)ncnc3c2c1C` [Compound 4, 3,4-dimethyl-8-(piperidin-1-yl)pyrimido[4′,5′:4,5]thieno [2,3-c]pyridazine], the maximal response (Emax) is 58% at rat mAChR M4 and 44% on human mAChR M4 (Human M4). Moreover, the concentration giving a half-maximal response (EC50) at rat mAChR M4 turned out to be 215 nM; at human mAChR M4 (setting [1]), 120 nM.

On to `Cc1nnc2sc3c(NC4CCC4)ncnc3c2c1C` [Compound 5, N-cyclobutyl-3,4-dimethylpyrimido[4′,5′:4,5] thieno[2,3-c]pyridazin-8-amine], for which, at rat mAChR M4, the Emax came to 80% and the EC50 is 112 nM. For the same compound, at human mAChR M4 (Human M4), the Emax stood at 73%.

As for `Cc1nnc2sc3c(N4CCCC4)ncnc3c2c1C` [Compound 6, 3,4-dimethyl-8-(pyrrolidin-1-yl)pyrimido[4′,5′:4,5]thieno [2,3-c]pyridazine], the Emax was found to be 82% on rat mAChR M4 and 68% at human mAChR M4 (Human M4).

Regarding `Cc1nnc2sc3c(NC4CN(c5ncc(C(F)(F)F)cn5)C4)ncnc3c2c1C` [Compound 7, 3,4-dimethyl-N-(1-(5-(trifluoromethyl)pyrimidin-2-yl)azetidin-3-yl)pyrimido[4′,5′:4,5] thieno[2,3-c]pyridazin-8-amine], the Emax at rat mAChR M4 was 86%; on human mAChR M4 (Human M4), 74%. In addition, the EC50 at rat mAChR M4 amounted to 30 nM; at human mAChR M4 (setting [1]), 251 nM.

For `Cc1nnc2sc3c(N4CCN(C5CC5)CC4)ncnc3c2c1C` [Compound 8, 8-(4-cyclopropylpiperazin-1-yl)-3,4-dimethylpyrimido [4′,5′:4,5]thieno[2,3-c] pyridazine], the Emax turned out to be 42% at rat mAChR M4 and 30% at human mAChR M4 (Human M4). Besides, the concentration giving a half-maximal response (EC50) on rat mAChR M4 is 700 nM; on human mAChR M4 (setting [1]) it was 616 nM.

As to `Cc1nnc2sc3c(N4CCC4)ncnc3c2c1C` [Compound 9, 8-(azetidin-1-yl)-3,4-dimethylpyrimido [4′,5′:4,5]thieno[2,3-c] pyridazine], the Emax at rat mAChR M4 stood at 75%; at human mAChR M4 (Human M4) it was 68%. In addition, the EC50 at human mAChR M4 (setting [1]) is 351 nM.

In the case of `Cc1nnc2sc3c(N4CC5CC5C4)ncnc3c2c1C` (stereo not drawn) [Compound 10, 8-(3-azabicyclo[3.1.0]hexan-3-yl)-3,4-dimethylpyrimido [4′,5′:4,5]thieno[2,3-c] pyridazine], the values for the maximal response (Emax) on rat mAChR M4 and on human mAChR M4 (Human M4) were 86% and 81%, respectively. In addition, the values for the EC50 on rat mAChR M4 and on human mAChR M4 (setting [1]) were 36 nM and 21 nM, respectively.

As for `Cc1nnc2sc3c(N4CCC(N(C)C)C4)ncnc3c2c1C` (stereo not drawn) [Compound 11, 1-(3,4-dimethylpyrimido [4′,5′:4,5]thieno[2,3-c]pyridazin-8-yl)-N,N-dimethylpyrrolidin-3-amine], the results for the maximum response (Emax) on rat mAChR M4 and on human mAChR M4 (Human M4) were 55% and 40%, respectively. The EC50 worked out at 326 nM at rat mAChR M4 and 257 nM at human mAChR M4 (setting [1]).

For the compound `COCCN(C)c1ncnc2c1sc1nnc(C)c(C)c12` [Compound 12, N-(2-methoxyethyl)-N,3,4-trimethylpyrimido [4′,5′:4,5]thieno[2,3-c] pyridazin-8-amine], the Emax at rat mAChR M4 is 57%; on human mAChR M4 (Human M4), 40%. The figures for the 50% effective concentration (EC50) at rat mAChR M4 and at human mAChR M4 (setting [1]) were 927 nM and 846 nM, respectively.

`Cc1nnc2sc3c(N4CC5(COC5)C4)ncnc3c2c1C` [Compound 13, 6-(3,4-dimethylpyrimido [4′,5′:4,5]thieno[2,3-c]pyridazin-8-yl)-2-oxa-6-azaspiro[3.3]heptane]: the values for the maximal effect (Emax) at rat mAChR M4 and on human mAChR M4 (Human M4) were 86% and 73%, respectively. Moreover, the EC50 on rat mAChR M4 is 231 nM; on human mAChR M4 (setting [1]), 123 nM.

On to `COCC1CN(c2ncnc3c2sc2nnc(C)c(C)c23)C1` [Compound 14, 8-(3-(methoxymethyl)azetidin-1-yl)-3,4-dimethylpyrimido [4′,5′:4,5]thieno[2,3-c] pyridazine], for which the Emax on rat mAChR M4 was 75%; on human mAChR M4 (Human M4), 62%.

With `Cc1cnc2sc3c(NC4CN(c5ncc(C(F)(F)F)cn5)C4)ncnc3c2c1` [Compound 17, 8-methyl-N-(1-(5-(trifluoromethyl)pyrimidin-2-yl)azetidin-3-yl)pyrido[3′,2′:4,5] thieno[3,2-d]pyrimidin-4-amine], at rat mAChR M4, the Emax came out at 76% and the 50% effective concentration (EC50) was 424 nM. Moreover, the Emax on human mAChR M4 (Human M4) is 32%.

On to `Cc1cnc2sc3c(N4CCC4)ncnc3c2c1` [Compound 18, 4-(azetidin-1-yl)-8-methylpyrido[3′,2′:4,5] thieno[3,2-d]pyrimidine], for which, on rat mAChR M4, the Emax is 51% and the EC50 came out at 2500 nM. Also, the Emax at human mAChR M4 (Human M4) turned out to be 58%.

`Cc1cnc2sc3c(N4CC5(COC5)C4)ncnc3c2c1` [Compound 19, 6-(8-methylpyrido [3′,2′:4,5]thieno[3,2-d]pyrimidin-4-yl)-2-oxa-6-azaspiro[3.3]heptane]: the Emax on rat mAChR M4 worked out at 54%; at human mAChR M4 (Human M4), 36%. Further, the concentration for a half-maximal effect (EC50) at rat mAChR M4 is 1150 nM; on human mAChR M4 (setting [1]), 456 nM.

Consider `FC(F)(F)c1cnc(N2CC(Nc3ncnc4c3sc3nccnc34)C2)nc1` [Compound 20, N-(1-(5-(trifluoromethyl)pyrimidin-2-yl)azetidin-3-yl)pyrazino[2′,3′:4,5] thieno[3,2-d]pyrimidin-4-amine], for which, at rat mAChR M4, the Emax came to 46% and the EC50 was 2800 nM. In addition, the EC50 on human mAChR M4 (setting [1]) is above 10000 nM.

As for `Cc1nnc2sc3c(N4CC(c5ccncc5)C4)ncnc3c2c1C` [Compound 24, 3,4-dimethyl-8-(3-(pyridin-4-yl)azetidin-1-yl)pyrimido[4′,5′:4,5] thieno[2,3-c]pyridazine], at rat mAChR M4, the Emax is 40% and the half-maximal effective concentration (EC50) worked out at 185 nM. For the same compound, the Emax at human mAChR M4 (Human M4) turned out to be 62%.

Consider `Cc1nnc2sc3c(NCc4ccc(C5COC5)cc4)ncnc3c2c1C` [Compound 374, 3,4-dimethyl-N-[[4-(oxetan-3-yl)phenyl]methyl] pyrimido[4′,5′:4,5]thieno [2,3-c]pyridazin-8-amine], for which the EC50 on human mAChR M4 (setting [2]) came to 45.2 nM. In addition, the Emax on human mAChR M4 (Table 11) was 101%.

In the case of `Cc1nnc2sc3c(NCc4ccc(C(C)(C)CO)cc4)ncnc3c2c1C` [Compound 375, 2-[4-[[(3,4-dimethylpyrimido[4′,5′:4,5]thieno[2,3-c]pyridazin-8-yl)amino]methyl]phenyl]-2-methyl-propan-1-ol], the half-maximal effective concentration (EC50) on human mAChR M4 (setting [2]) stood at 138 nM. For the same compound, the maximal response (Emax) on human mAChR M4 (Table 11) amounted to 87.2%.

As to `CC(=O)OCc1nnc2sc3c(NCc4ccc(C(C)(C)O)cc4)ncnc3c2c1C` [Compound 376, [8-[[4-(1-hydroxy-1-methyl-ethyl)phenyl]methylamino]-4-methyl-pyrimido[4′,5′:4,5]thieno[2,3-c]pyridazin-3-yl]methyl acetate], the Emax at human mAChR M4 (Table 11) came to 59.4%.

In the case of `Cc1c(CO)nnc2sc3c(NCc4ccc(C(C)(C)O)cc4)ncnc3c12` [Compound 377, 2-[4-[[[3-(hydroxymethyl)-4-methyl-pyrimido[4′,5′:4,5]thieno[2,3-c]pyridazin-8-yl]amino]methyl]phenyl]propan-2-ol], the Emax at human mAChR M4 (Table 11) stood at 93.6%.
